Columns and labels:
[1] = test system: non-small cell lung cancer cell line H460; assay: H460 proliferation assay in the presence of 3 uM ASP9521 (AKR1C3 specific inhibitor); assay type: cell-based, human; settings: H460 cells, CellTiter-Glo, 72 hours, in the presence of 3 uM ASP9521 added 4 hours prior to compounds; read-out: CTG H460: Avg IC50 (nM) [Assay Condition: ASP9521]
Method in brief: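 AKR1C3 blocked with 3 uM ASP9521 given 4 h ahead of test compounds. H460 cells, plated 24 h earlier, were then treated for 72 h at 37 °C in 5% CO2. CellTiter-Glo luminescence gave viability.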

[2] = test system: non-small cell lung cancer cell line H460; assay: In vitro human cancer cell line cytotoxicity (proliferation) assay in H460, CellTiter-Glo, 72 hours; assay type: cell-based; settings: DMSO condition (no AKR1C3 inhibitor), read-out: CTG H460: Avg IC50 (nM) [Assay Condition: DMSO]
Method in brief: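 IC50s in nM come from CellTiter-Glo viability read after 72 h of compound exposure. Compounds went in from 10 mM DMSO stocks onto H460 cells, which had been plated at 3×10^3 per well and grown 24 h beforehand at 37 °C, 5% CO2.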

[3] = Homo sapiens, NCI-H460, 72 h, H460 cells
[4] = Homo sapiens, NCI-H460, H460 cells

Structure (SMILES) | IC50 [1] | IC50 [2, 3] | IC50 ([2]; H460 cells) | IC50 [2, 4]
O=[N+]([O-])c1ccc2c(c1Oc1cccc(-c3c(F)cnn3CCO)c1)CC[C@@H]2OP(=O)(N1CC1)N1CC1 [Example 371] | 591 nM | < 10 nM |  | 
O=[N+]([O-])c1ccc2c(c1Oc1cccc(-c3cc(F)nn3CCO)c1)CC[C@@H]2OP(=O)(N1CC1)N1CC1 [Example 372] | 332 nM | < 10 nM |  | 
Cn1ncc(F)c1-c1cccc(Oc2c([N+](=O)[O-])ccc3c2CCC3OP(=O)(N2CC2)N2CC2)c1 (stereo not drawn) [Example 373] | 672 nM |  | < 10 nM | 
Cn1nc(F)cc1-c1cccc(Oc2c([N+](=O)[O-])ccc3c2CCC3OP(=O)(N2CC2)N2CC2)c1 (stereo not drawn) [Example 374] | 468 nM |  | < 10 nM | 
Cn1nc(-c2cccc(Oc3c([N+](=O)[O-])ccc4c3CC[C@@H]4OP(=O)(N3CC3)N3CC3)c2)cc1F [Example 375] | 2520 nM | < 10 nM |  | 
CSc1ccc(Oc2c([N+](=O)[O-])ccc3c2CC[C@@H]3OP(=O)(N2CC2)N2CC2)cc1-c1nc(C)ns1 [Example 376] | 1850 nM | < 10 nM |  | 
Cn1c(=O)oc2ccc(Oc3c([N+](=O)[O-])ccc4c3CCC4OP(=O)(N3CC3)N3CC3)cc21 (stereo not drawn) [Example 378] | 440 nM | < 10 nM |  | 
O=C1c2ccc(Oc3c([N+](=O)[O-])ccc4c3CC[C@@H]4OP(=O)(N3CC3)N3CC3)cc2CN1C1CC1 [Example 379] | 447 nM | < 10 nM |  | 
Cn1c(=O)oc2ccc(Oc3c([N+](=O)[O-])ccc4c3CC[C@@H]4OP(=O)(N3CC3)N3CC3)cc21 [Example 380] | 722 nM | < 10 nM |  | 
Cn1ccc2cc(Oc3c([N+](=O)[O-])ccc4c3CCC4OP(=O)(N3CC3)N3CC3)ccc2c1=O (stereo not drawn) [Example 381] | 312 nM | < 10 nM |  | 
Cn1ccc2cc(Oc3c([N+](=O)[O-])ccc4c3CC[C@@H]4OP(=O)(N3CC3)N3CC3)ccc2c1=O [Example 382] | 320 nM | < 10 nM |  | 
O=[N+]([O-])c1ccc2c(c1Oc1ccc3nccn3c1)CC[C@H]2OP(=O)(N1CC1)N1CC1 [Example 383] | 4240 nM | 10 to 50 nM |  | 
Cn1ccc2cc(Oc3c([N+](=O)[O-])ccc4c3CCC4OP(=O)(N3CC3)N3CC3)ccc21 (stereo not drawn) [Example 384] | 1490 nM | < 10 nM |  | 
O=[N+]([O-])c1ccc2c(c1Oc1ccc3c(c1)OC(F)(F)O3)CC[C@@H]2OP(=O)(N1CC1)N1CC1 [Example 385] | 819 nM | < 10 nM |  | 
Cn1ccc2cc(Oc3c([N+](=O)[O-])ccc4c3CC[C@H]4OP(=O)(N3CC3)N3CC3)ccc21 [Example 386] | 1410 nM | < 10 nM |  | 
Cc1cc2cc(Oc3c([N+](=O)[O-])ccc4c3CCC4OP(=O)(N3CC3)N3CC3)ccc2n1C (stereo not drawn) [Example 387] | 1860 nM | < 10 nM |  | 
Cc1nc2cc(Oc3c([N+](=O)[O-])ccc4c3CCC4OP(=O)(N3CC3)N3CC3)ccc2n1C (stereo not drawn) [Example 388] | 1430 nM | < 10 nM |  | 
Cn1cnc2cc(Oc3c([N+](=O)[O-])ccc4c3CCC4OP(=O)(N3CC3)N3CC3)ccc21 (stereo not drawn) [Example 390] | 1410 nM |  |  | < 10 nM
Cc1cc2cc(Oc3c([N+](=O)[O-])ccc4c3CC[C@H]4OP(=O)(N3CC3)N3CC3)ccc2n1C [Example 391] | 1810 nM | < 10 nM |  | 
Cc1nc2cc(Oc3c([N+](=O)[O-])ccc4c3CC[C@H]4OP(=O)(N3CC3)N3CC3)ccc2n1C [Example 392] | 785 nM | < 10 nM |  | 
O=[N+]([O-])c1ccc2c(c1Oc1ccc3c(c1)OCO3)CC[C@@H]2OP(=O)(N1CC1)N1CC1 [Example 394] | 388 nM | < 10 nM |  | 

Structure (SMILES) | IC50 [1] | IC50 [2, 3] | IC50 ([2]; H460 cells) | IC50 [2, 4]
Cn1cnc2cc(Oc3c([N+](=O)[O-])ccc4c3CC[C@@H]4OP(=O)(N3CC3)N3CC3)ccc21 [Example 396] | 2480 nM |  |  | 10 to 50 nM
Cn1cnc2cc(Oc3c([N+](=O)[O-])ccc4c3CC[C@H]4OP(=O)(N3CC3)N3CC3)ccc21 [Example 397] | 956 nM |  |  | < 10 nM
Cn1cc2ccc(Oc3c([N+](=O)[O-])ccc4c3CC[C@@H]4OP(=O)(N3CC3)N3CC3)cc2n1 [Example 399] | 1110 nM |  | < 10 nM | 
O=[N+]([O-])c1ccc2c(c1Oc1ccc3ncccc3c1)CC[C@@H]2OP(=O)(N1CC1)N1CC1 [Example 400] | 452 nM | < 10 nM |  | 
Cn1ccc2cc(F)c(Oc3c([N+](=O)[O-])ccc4c3CCC4OP(=O)(N3CC3)N3CC3)cc21 (stereo not drawn) [Example 402] | 712 nM |  | < 10 nM | 
O=C1CCCCN1c1cccc(Oc2c([N+](=O)[O-])ccc3c2CCC3OP(=O)(N2CC2)N2CC2)c1 (stereo not drawn) [Example 410] | 4660 nM |  | 10 to 50 nM | 
CC1(C)CN(c2cccc(Oc3c([N+](=O)[O-])ccc4c3CCC4OP(=O)(N3CC3)N3CC3)c2)C(=O)O1 (stereo not drawn) [Example 417] | 712 nM |  | < 10 nM | 
O=[N+]([O-])c1ccc2c(c1Oc1ccc(F)c(-n3cc(F)cn3)c1)CC[C@H]2OP(=O)(N1CC1)N1CC1 [Example 420] | 675 nM | < 10 nM |  | 
O=[N+]([O-])c1ccc2c(c1Oc1ccc(F)c(-n3cc(F)cn3)c1)CC[C@@H]2OP(=O)(N1CC1)N1CC1 [Example 421] | 1400 nM | < 10 nM |  | 
O=[N+]([O-])c1ccc2c(c1Oc1ccc(-n3cc(F)cn3)cc1)CCC2OP(=O)(N1CC1)N1CC1 (stereo not drawn) [Example 422] | 821 nM |  | < 10 nM | 
O=[N+]([O-])c1ccc2c(c1Oc1ccc(-n3cccn3)cc1)CCC2OP(=O)(N1CC1)N1CC1 (stereo not drawn) [Example 424] | 779 nM |  | < 10 nM | 
Cc1cnn(-c2ccc(Oc3c([N+](=O)[O-])ccc4c3CCC4OP(=O)(N3CC3)N3CC3)cc2)c1 (stereo not drawn) [Example 425] | 5270 nM |  | < 10 nM | 
CC1(C)CN(c2ccc(Oc3c([N+](=O)[O-])ccc4c3CCC4OP(=O)(N3CC3)N3CC3)cc2)C(=O)O1 (stereo not drawn) [Example 426] | 638 nM |  | < 10 nM | 
O=C1CCCN1c1cc(Oc2c([N+](=O)[O-])ccc3c2CCC3OP(=O)(N2CC2)N2CC2)ccc1F (stereo not drawn) [Example 427] | 756 nM |  | < 10 nM | 
O=C1CCCN1c1cc(Oc2c([N+](=O)[O-])ccc3c2CC[C@H]3OP(=O)(N2CC2)N2CC2)ccc1F [Example 428] | 1200 nM |  | < 10 nM | 
Cc1cnn(-c2cccc(Oc3c([N+](=O)[O-])ccc4c3CC[C@@H]4OP(=O)(N3CC3)N3CC3)c2)c1 [Example 429] | 1960 nM | < 10 nM |  | 
Cc1ccn(-c2cccc(Oc3c([N+](=O)[O-])ccc4c3CC[C@H]4OP(=O)(N3CC3)N3CC3)c2)n1 [Example 430] | 4860 nM | < 10 nM |  | 
O=[N+]([O-])c1ccc2c(c1Oc1ccc(F)c(OCC(F)(F)F)c1)CC[C@H]2OP(=O)(N1CC1)N1CC1 [Example 431] | 238 nM | < 10 nM |  | 
O=[N+]([O-])c1ccc2c(c1Oc1cccc(-n3cc(C(F)F)cn3)c1)CC[C@@H]2OP(=O)(N1CC1)N1CC1 [Example 432] | 4170 nM | < 10 nM |  | 
Cc1ccnn1-c1cc(Oc2c([N+](=O)[O-])ccc3c2CC[C@@H]3OP(=O)(N2CC2)N2CC2)ccc1F [Example 433] | 2590 nM | < 10 nM |  | 
Cc1nncn1-c1cccc(Oc2c([N+](=O)[O-])ccc3c2CC[C@@H]3OP(=O)(N2CC2)N2CC2)c1 [Example 434] | 1140 nM | < 10 nM |  | 

From US20260167656A1, “PHOSPHORAMIDATE COMPOUNDS AND USES THEREOF” (ALLORION THERAPEUTICS INC, priority 2022, published 2026)
